Our source for the MIC values is US20240425464A1, “Substituted Monohydrazides as Potent Antifungal Agents” (University of Kentucky Research Foundation, priority 2023, published 2024).

In brackets after ≈: the same amount, converted by molar mass. Read-outs that look alike come from different tables or passages of the source. Bounds are passed on as bounds.

Holding throughout (assay type): cell-based, Candida albicans
Test [1] has as its system C. albicans ATCC 10231 (strain A). Put plainly: MIC determination by in vitro antifungal assay (CLSI broth dilution). The note with it: strain A = C. albicans ATCC 10231, no visible growth, 48 h at 35° C. In short, it runs like this:
(§1)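 Twofold dilutions spanning 0.06–31.3 μg/mL were incubated with fungi for 48 h at 35° C in MOPS-buffered RPMI 1640 (pH 7.0), following modified CLSI M27-A3 and M38-A2 methods. Yeast cells were grown overnight in YPD, set to OD600 0.12 (~1×10^6 CFU/mL), then diluted 1:100.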
Background: Broth dilution looks for growth in wells or tubes with falling amounts of substance.

In test [2] the test system is C. albicans ATCC 64124 (B). Briefly: MIC determination by in vitro antifungal assay. The procedure, abridged: as §1
The subject of test [3] is C. albicans ATCC MYA-2310 (E). Put plainly: MIC determination by in vitro antifungal assay. To be noted: strain E = C. albicans ATCC MYA-2310. In short, it runs like this:
as §1

Test [4] concerns C. albicans ATCC MYA-1003 (G). Put plainly: MIC determination by in vitro antifungal assay. To be noted: strain G = C. albicans ATCC MYA-1063(R) (footnote), MYA-1003 in text. The procedure, abridged:
as §1

Test [5] has as its system C. albicans ATCC MYA-2876 (C). Put plainly: MIC determination by in vitro antifungal assay. To be noted: strain C = C. albicans ATCC MYA-2876(S). In short, it runs like this:
as §1

Test [6] relates to C. albicans ATCC 90819 (D). Briefly: MIC determination by in vitro antifungal assay. In short, it runs like this:
as §1

In test [7] the test system is C. albicans ATCC MYA-1237 (F). Put plainly: MIC determination by in vitro antifungal assay. The note with it: strain F = C. albicans ATCC MYA-1237(R). In short, it runs like this: as §1
[8] abbreviates: Candida albicans, ATCC10231, 48 h, read-out: MIC.
Setting [9] is: Candida albicans, ATCC64124, strain B = C. albicans ATCC 64124, read-out: MIC.
[10] abbreviates: Candida albicans, read-out: MIC.
Where [11] appears, read: Candida albicans, ATCC90819, strain D = C. albicans ATCC 90819(R), read-out: MIC.
[12] abbreviates: strain B = C. albicans ATCC 64124.
Setting [13] is: strain D = C. albicans ATCC 90819(R).

With `COc1ccc(NNC(=O)c2ncc(F)cc2F)cc1` [Compound 7f], the MIC in test [1] (setting [8]) worked out at 1.95 µg/mL (≈ 6.98 µM); in test [2] (setting [9]), 1.95 µg/mL (≈ 6.98 µM); in test [3] (setting [10]) it was 1.95 µg/mL (≈ 6.98 µM); in test [4] (setting [10]), 0.98 µg/mL (≈ 3.51 µM); in test [5] (setting [10]) it was 1.95 µg/mL (≈ 6.98 µM); in test [6] (setting [11]), 1.95 µg/mL (≈ 6.98 µM). Also, in test [7] (setting [10]), the MIC was found to be 0.98 µg/mL (≈ 3.51 µM).

As to `O=C(NNc1ccc(F)cc1F)c1ncc(F)cc1F` [Compound 7g], the MIC in test [1] (setting [8]) was determined as 0.98 µg/mL (≈ 3.44 µM); in test [2] (setting [9]), 3.9 µg/mL (≈ 13.7 µM); in test [3] (setting [10]), 3.9 µg/mL (≈ 13.7 µM); in test [4] (setting [10]) it was 1.95 µg/mL (≈ 6.84 µM); in test [5] (setting [10]), 3.9 µg/mL (≈ 13.7 µM); in test [6] (setting [11]), 3.9 µg/mL (≈ 13.7 µM). Moreover, the MIC in test [7] (setting [10]) came to 3.9 µg/mL (≈ 13.7 µM).

Regarding `O=C(NNc1cccc(F)c1)c1nc(F)ccc1F` [Compound 8a], the MIC in test [1] is recorded as 0.98 μg/mL^−1; in test [2] (setting [12]), 0.98 μg/mL^−1; in test [3], 1.95 μg/mL^−1; in test [4], 0.98 μg/mL^−1; in test [5], 1.95 μg/mL^−1; in test [6] (setting [13]) it was 3.9 μg/mL^−1. The compound further yielded an MIC in test [7] of 1.95 μg/mL^−1.

With `COc1cccc(NNC(=O)c2nc(F)ccc2F)c1` [Compound 8c], the MIC came to 0.98 µg/mL (≈ 3.51 µM) in test [1] (setting [8]); 1.95 µg/mL (≈ 6.98 µM) in test [2] (setting [9]); 3.9 µg/mL (≈ 14 µM) in test [3] (setting [10]); 1.95 µg/mL (≈ 6.98 µM) in test [4] (setting [10]); 3.9 µg/mL (≈ 14 µM) in test [5] (setting [10]); 7.8 µg/mL (≈ 27.9 µM) in test [6] (setting [11]). Further, the MIC in test [7] (setting [10]) is 1.95 µg/mL (≈ 6.98 µM).

As for `O=C(NNc1ccc(F)cc1)c1nc(F)ccc1F` [Compound 8d], the MIC turned out to be 0.24 µg/mL (≈ 0.898 µM) in test [1] (setting [8]); 0.98 µg/mL (≈ 3.67 µM) in test [2] (setting [9]); 0.98 µg/mL (≈ 3.67 µM) in test [3] (setting [10]); 0.49 µg/mL (≈ 1.83 µM) in test [4] (setting [10]); 0.98 µg/mL (≈ 3.67 µM) in test [5] (setting [10]); 0.98 µg/mL (≈ 3.67 µM) in test [6] (setting [11]). In test [7] (setting [10]), the MIC was found to be 0.98 µg/mL (≈ 3.67 µM).

In the case of `O=C(NNc1ccc(Cl)cc1)c1nc(F)ccc1F` [Compound 8e], the MIC was 3.9 μg/mL^−1 in test [1]; 7.8 μg/mL^−1 in test [2] (setting [12]); 3.9 μg/mL^−1 in test [3]; 3.9 μg/mL^−1 in test [4]; 3.9 μg/mL^−1 in test [5]; 7.8 μg/mL^−1 in test [6] (setting [13]). Also, the MIC in test [7] is above 31.3 μg/mL^−1.

With `COc1ccc(NNC(=O)c2nc(F)ccc2F)cc1` [Compound 8f], the MIC in test [1] (setting [8]) stood at 1.95 µg/mL (≈ 6.98 µM); in test [2] (setting [9]) it was 1.95 µg/mL (≈ 6.98 µM); in test [3] (setting [10]) it was 1.95 µg/mL (≈ 6.98 µM); in test [4] (setting [10]) it was 0.98 µg/mL (≈ 3.51 µM); in test [5] (setting [10]), 1.95 µg/mL (≈ 6.98 µM); in test [6] (setting [11]) it was 1.95 µg/mL (≈ 6.98 µM). In addition, the MIC in test [7] (setting [10]) was determined as 0.98 µg/mL (≈ 3.51 µM).

As to `O=C(NNc1ccc(F)cc1F)c1nc(F)ccc1F` [Compound 8g], the MIC in test [1] (setting [8]) was 0.98 µg/mL (≈ 3.44 µM); in test [2] (setting [9]), 1.95 µg/mL (≈ 6.84 µM); in test [3] (setting [10]), 1.95 µg/mL (≈ 6.84 µM); in test [4] (setting [10]) it was 0.98 µg/mL (≈ 3.44 µM); in test [5] (setting [10]), 1.95 µg/mL (≈ 6.84 µM); in test [6] (setting [11]), 3.9 µg/mL (≈ 13.7 µM). For the same compound, the MIC in test [7] (setting [10]) was 1.95 µg/mL (≈ 6.84 µM).

Regarding `O=C(NNc1cccc(F)c1)c1cnccn1` [Compound 9a], the MIC was found to be 0.24 μg/mL^−1 in test [1]; 1.95 μg/mL^−1 in test [2] (setting [12]); 7.8 μg/mL^−1 in test [3]; 0.98 μg/mL^−1 in test [4]; 3.9 μg/mL^−1 in test [5]; 0.98 μg/mL^−1 in test [6] (setting [13]). Moreover, in test [7], the MIC came out at 0.98 μg/mL^−1.

As to `O=C(NNc1cccc(Cl)c1)c1cnccn1` [Compound 9b], the MIC was found to be 0.24 µg/mL (≈ 0.965 µM) in test [1] (setting [8]); 1.95 µg/mL (≈ 7.84 µM) in test [2] (setting [9]); 7.8 µg/mL (≈ 31.4 µM) in test [3] (setting [10]); 0.98 µg/mL (≈ 3.94 µM) in test [4] (setting [10]); 1.95 µg/mL (≈ 7.84 µM) in test [5] (setting [10]); 3.9 µg/mL (≈ 15.7 µM) in test [6] (setting [11]). Also, in test [7] (setting [10]), the MIC was 0.98 µg/mL (≈ 3.94 µM).

On to `COc1cccc(NNC(=O)c2cnccn2)c1` [Compound 9c], for which the MIC in test [1] (setting [8]) was found to be 0.49 µg/mL (≈ 2.01 µM); in test [2] (setting [9]) it was 0.98 µg/mL (≈ 4.01 µM); in test [3] (setting [10]), 1.95 µg/mL (≈ 7.98 µM); in test [4] (setting [10]), 0.98 µg/mL (≈ 4.01 µM); in test [5] (setting [10]) it was 1.95 µg/mL (≈ 7.98 µM); in test [6] (setting [11]), 1.95 µg/mL (≈ 7.98 µM). Further, in test [7] (setting [10]), the MIC is 1.95 µg/mL (≈ 7.98 µM).

Turning to `O=C(NNc1ccc(F)cc1)c1cnccn1` [Compound 9d], the MIC was determined as 0.24 µg/mL (≈ 1.03 µM) in test [1] (setting [8]); 1.98 µg/mL (≈ 8.53 µM) in test [2] (setting [9]); 7.8 µg/mL (≈ 33.6 µM) in test [3] (setting [10]); 1.95 µg/mL (≈ 8.4 µM) in test [4] (setting [10]); 7.8 µg/mL (≈ 33.6 µM) in test [5] (setting [10]); 0.98 µg/mL (≈ 4.22 µM) in test [6] (setting [11]). For the same compound, in test [7] (setting [10]), the MIC came to 0.98 µg/mL (≈ 4.22 µM).

With `O=C(NNc1ccc(Cl)cc1)c1cnccn1` [Compound 9e], the MIC worked out at 0.98 μg/mL^−1 in test [1]; 1.95 μg/mL^−1 in test [2] (setting [12]); 1.95 μg/mL^−1 in test [3]; 1.95 μg/mL^−1 in test [4]; 3.9 μg/mL^−1 in test [5]; 0.98 μg/mL^−1 in test [6] (setting [13]). Besides, the MIC in test [7] is given as 0.98 μg/mL^−1.

Take `COc1ccc(NNC(=O)c2cnccn2)cc1` [Compound 9f]: the MIC in test [1] (setting [8]) was 0.49 µg/mL (≈ 2.01 µM); in test [2] (setting [9]) it was 0.98 µg/mL (≈ 4.01 µM); in test [3] (setting [10]) it was 1.95 µg/mL (≈ 7.98 µM); in test [4] (setting [10]), 1.95 µg/mL (≈ 7.98 µM); in test [5] (setting [10]), 1.95 µg/mL (≈ 7.98 µM); in test [6] (setting [11]), 0.98 µg/mL (≈ 4.01 µM). In test [7] (setting [10]), the MIC was 0.98 µg/mL (≈ 4.01 µM).

As to `O=C(NNc1ccc(F)cc1F)c1cnccn1` [Compound 9g], the MIC in test [1] (setting [8]) is 0.24 µg/mL (≈ 0.959 µM); in test [2] (setting [9]), 0.98 µg/mL (≈ 3.92 µM); in test [3] (setting [10]), 3.9 µg/mL (≈ 15.6 µM); in test [4] (setting [10]), 0.49 µg/mL (≈ 1.96 µM); in test [5] (setting [10]), 0.98 µg/mL (≈ 3.92 µM); in test [6] (setting [11]) it was 0.98 µg/mL (≈ 3.92 µM). In addition, the MIC in test [7] (setting [10]) amounted to 0.49 µg/mL (≈ 1.96 µM).

Take `O=C(NNc1cc(F)ccc1F)c1cnccn1` [Compound 9h]: the MIC in test [1] (setting [8]) was 0.24 µg/mL (≈ 0.959 µM); in test [2] (setting [9]), 7.8 µg/mL (≈ 31.2 µM); in test [3] (setting [10]), above 31.3 µg/mL; in test [4] (setting [10]), 1.95 µg/mL (≈ 7.79 µM); in test [5] (setting [10]) it was 3.9 µg/mL (≈ 15.6 µM); in test [6] (setting [11]), 3.9 µg/mL (≈ 15.6 µM). For the same compound, in test [7] (setting [10]), the MIC turned out to be 3.9 µg/mL (≈ 15.6 µM).

With `O=C(NNc1cc(F)cc(F)c1)c1cnccn1` [Compound 9i], the MIC in test [1] (setting [8]) turned out to be 0.24 µg/mL (≈ 0.959 µM); in test [2] (setting [9]), 3.9 µg/mL (≈ 15.6 µM); in test [3] (setting [10]), 15.6 µg/mL (≈ 62.3 µM); in test [4] (setting [10]), 1.95 µg/mL (≈ 7.79 µM); in test [5] (setting [10]), 7.8 µg/mL (≈ 31.2 µM); in test [6] (setting [11]) it was 3.9 µg/mL (≈ 15.6 µM). Further, the MIC in test [7] (setting [10]) is 1.95 µg/mL (≈ 7.79 µM).

For the compound `O=C(NNc1cc(Cl)cc(Cl)c1)c1cnccn1` [Compound 9j], the MIC was 0.49 µg/mL (≈ 1.73 µM) in test [1] (setting [8]); 3.9 µg/mL (≈ 13.8 µM) in test [2] (setting [9]); 7.8 µg/mL (≈ 27.6 µM) in test [3] (setting [10]); 3.9 µg/mL (≈ 13.8 µM) in test [4] (setting [10]); 3.9 µg/mL (≈ 13.8 µM) in test [5] (setting [10]); 1.95 µg/mL (≈ 6.89 µM) in test [6] (setting [11]). Further, the MIC in test [7] (setting [10]) was 1.95 µg/mL (≈ 6.89 µM).
